Like-named read-outs stand apart in the source and are kept apart here.
Legend:
primary RGCs = test: Survival of immunopanned primary RGCs in culture; conditions: for RGC survival / neuroprotective activity in culture: immunopanned RGCs, increasing doses, 72 hours in culture; for neuroprotective activity, RGC survival by CellTiter-Glo luminescence: murine purified RGCs, neurotrophin-depleted media, 72 hours, sunitinib as positive control
Procedure: All animal use was in accordance with ARVO Statement for the Use of Animals, and all the experimental procedures were performed in compliance with animal protocols approved by the IACUC at Johns Hopkins University. Retinas were isolated from postnatal 0-5 day mice and dissociated with papain. Microglia was immunodepleted with anti-CD11b conjugated Dynabeads. The suspension of retinal cells were immunopanned on plates pre-conjugated with anti-Thy1.2 antibody (Serotec, Raleigh, N.C.; MCA028) and goat anti-mouse IgM (Jackson Immunoresearch) at room temperature (RT). After washing, RGCs were released from the plate by a cell lifter, counted, and seeded at a density of 10,000 per well in 96-well plates in the media composed of Neurobasal, B27, N2 supplement, L-glutamine, and penicillin/streptomycin. After a 72 hour culture at 37° C., RGCs were stained with calcein AM, ethidium homodimer, and Hoechst 33342. Images were taken from portions of each well with Cellomics Kinetscan or Cellomics ArrayScan VTI HCS Readers (Thermo Fisher), and cell survival was quantified and calculated with the algorithms in Cellomics Neuroprofiling package. As indicated, RGC viability was alternatively measured by CellTiter-Glo luminescence (Promega, Fitchburg, Wis.).
For siRNA-based screening, the siRNAs from the Sigma Mission Mouse Kinome library were complexed with NeuroMag (Oz Biosciences, Marseille, France) at a final concentration of 20 nM. RGCs were then reverse transfected on a stationary magnet and assayed for survival 72 hours later using CellTiter-Glo (Promega). […] Confirmatory siRNAs were obtained from both Dharmacon (Lafayette, Colo.) and Ambion (Carlsbad, Calif.). Adenovirus expressing wildtype or kinase-dead DLK (Robitaille et al., 2004) was added to RGCs at a multiplicity of infection of 100-1000. For small molecule-based screening, serially diluted compounds in DMSO were transferred to 1536 well assay plates by a 23 nL pintool array (Kalypsys, San Diego, Calif.), with a final concentration of 0.057% DMSO for each respective compound concentration. RGCs were cultured for 48 h, and cell viability was analyzed on a plate reader (ViewLux, Perkin Elmer, Waltham, Mass.) using the bioluminescent CellTiterGlo (Promega, Fitchburg, Wis.) assay. Concentration response curves were created using CurveFit (NIH NCATS). The screened libraries include the modified Tocriscreen (1395 compounds) collection, FDA-approved drugs (2814 compounds), LOPAC (1208 compounds) and PTL2/PTL3 (based on pteridin, pyrimidine and quinazoline scaffolds; 2319 compounds).
In order to identify novel neuroprotective agents, a high-content, high-throughput, phenotypic screen was developed using primary RGCs. RGCs were immunopanned from perinatal mice using an antibody against the RGC surface antigen Thy1 (Barres et al., 1988), arrayed into microtiter (96- to 1536-well) plates, and cell survival in the presence of various bioactive small molecules was assayed 72 hours later.

DLK = biological target: T1, DLK (Homo sapiens, UniProt Q12852); conditions: published kinase inhibitor profiles; cited from earlier work
T1 sequence (Q12852 1-859): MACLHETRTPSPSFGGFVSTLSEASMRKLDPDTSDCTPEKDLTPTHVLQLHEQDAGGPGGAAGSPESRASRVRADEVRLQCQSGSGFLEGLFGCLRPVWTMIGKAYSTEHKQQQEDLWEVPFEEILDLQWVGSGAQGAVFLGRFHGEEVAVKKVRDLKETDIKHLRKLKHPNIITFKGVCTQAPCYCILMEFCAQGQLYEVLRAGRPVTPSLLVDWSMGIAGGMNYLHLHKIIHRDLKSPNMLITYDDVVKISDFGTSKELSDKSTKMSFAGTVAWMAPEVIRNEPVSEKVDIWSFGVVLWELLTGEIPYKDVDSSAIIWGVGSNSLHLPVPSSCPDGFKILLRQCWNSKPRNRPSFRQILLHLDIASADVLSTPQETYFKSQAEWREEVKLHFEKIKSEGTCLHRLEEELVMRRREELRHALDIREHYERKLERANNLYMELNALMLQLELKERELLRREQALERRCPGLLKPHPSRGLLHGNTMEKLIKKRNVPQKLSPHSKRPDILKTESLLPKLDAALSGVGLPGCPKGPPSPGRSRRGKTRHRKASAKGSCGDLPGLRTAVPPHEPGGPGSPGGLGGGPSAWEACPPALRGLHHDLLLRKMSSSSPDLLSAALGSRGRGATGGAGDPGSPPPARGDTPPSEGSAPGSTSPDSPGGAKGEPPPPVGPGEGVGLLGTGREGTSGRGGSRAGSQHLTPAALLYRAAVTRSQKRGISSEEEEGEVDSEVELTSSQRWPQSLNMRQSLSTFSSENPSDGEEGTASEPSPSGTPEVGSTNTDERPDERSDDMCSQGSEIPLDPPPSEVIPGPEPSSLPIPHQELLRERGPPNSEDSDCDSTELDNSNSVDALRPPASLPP

optic nerve axons = test: Rat laser-induced ocular hypertension (glaucoma model), optic nerve axon counts; conditions: for reduction of optic nerve axon loss: intravitreal drug-eluting PLGA microspheres, pretreatment, at one month
Procedure: 6-week old male Wistar rats were anesthetized with ketamine/xylazine. A partial periotomy was made to expose the sclera. The injection site was approximately 1 mm posterior to the ora serrata, and the injection glass pipet was angled towards the optic disc in order to avoid lens injury. 5 μL (10 μg) of PLGA microspheres were injected with a glass pipet and Hamilton syringe.
Intraocular pressure (TOP) was unilaterally elevated by laser treatment of the trabecular meshwork as previously described (Levkovitch-Verbin, H. et al., 2002). Briefly, 6-week old Wistar male rats were anesthetized with ketamine/xylazine. On two consecutive weeks, 40-50 532 nm diode laser spots were applied to the prelimbal region (50 μm diameter, 600 mW power and 0.6 seconds duration). Under anesthesia, the IOP of laser-treated and fellow eyes was measured with TonoLab one and three days after laser treatment. Four weeks following laser treatment, rats were perfused with 4% paraformaldehyde in phosphate buffer. Optic nerves were isolated, postfixed with 1% osmium tetroxide, embedded in epoxy resin and stained with 1% toluidine blue. Images from 10 random and nonoverlapping fields were taken with 100× oil phase contrast objective. The area of entire optic nerve cross-sections were imaged with 10× magnification, and used with axon counts from the 10 field to derive axon counts per nerve. The laser treatment and acquisition of optic nerve images were performed in a masked fashion.
Sunitinib, or its vehicle control, were packaged in poly(lactic-co-glycolic acid) (PLGA)-based, slow-eluting microspheres (Edwards, 1997) and injected intravitreally into Wistar rats.

RGCs = test: Rat optic nerve transection, RGC survival; type: in vivo, Wistar rats
JNK1/2/3 = conditions: published kinase inhibitor profiling; cited from earlier work
[1] = system: DLK signaling (phosphorylation of MKK7 and JNK); test: Western blot of DLK pathway members in RGCs; type: cell-based, mouse; conditions: RGCs 4 hours after immunopanning, concentrations that increase RGC survival
Procedure: (§1) The shaded area indicates the toxic range for tozasertib; (B) Western blot of the DLK pathway members in RGCs 4 hours after immunopanning in the presence of 0, 0.03, 0.06, 0.125, 0.25, 0.5, 1 or 2 μM tozasertib; (C) survival of cultured RGCs 72 hours after transfection with DLK (dashed) or nontargeting siRNA (solid) in the presence of increasing doses of tozasertib; and (D) survival of cultured RGCs 48 hours after transduction with DLK expressing adenovirus in the presence of increasing doses of tozasertib. Error bars show standard deviation; and
Western blots were performed according to the standard protocol. The following antibodies were from Cell Signaling Technology (Beverly, Mass.): Phospho-JNK, Thr183/Tyr185 (4671); JNK (9258); Phospho-MKK7 (4171), and MKK7 (4172). Monoclonal anti-alpha-tubulin antibody (T6074) was purchased from Sigma (St. Louis, Mo.), βIII tubulin (TUJ1) from Covance, goat polyclonal Brn3 from C-13, and rabbit anti-Cre from Novus. DLK rabbit polyclonal was provided by S. Hirai.

RGCs overexpressing DLK = test: Survival of RGCs transduced with DLK-expressing adenovirus in the presence of inhibitor; type: cell-based, mouse
Procedure: as §1
(§2) Concentration response curves were created using CurveFit (NIH NCATS).

[2] = system: DLK siRNA-transfected RGCs; test: Survival of RGCs transfected with DLK or control siRNA in the presence of inhibitor; type: cell-based, mouse; conditions: 72 hours after transfection, increasing doses
Procedure: as §1, §2

MKK4/7 = conditions: published kinase inhibitor profiling; cited from earlier work

SMILES	RGC survival / neuroprotective activity in culture (primary RGCs)	neuroprotective activity, RGC survival by CellTiter-Glo luminescence (primary RGCs)	binding to DLK (DLK)	also measured
O=C(c1ccc(/C=C/c2n[nH]c3ccccc23)cc1)N1CCNCC1 [KW-2449]	promoted the survival of primary RGCs in culture	neuroprotective activity	reported to bind DLK	
CN(C)S(=O)(=O)c1ccc2c(c1)/C(=C/c1cc3c([nH]1)CCCC3)C(=O)N2 [SU6656]	neuroprotective			
COc1cc(N2CCC(N3CCN(C)CC3)CC2)ccc1Nc1ncc(Cl)c(Nc2ccccc2S(=O)(=O)C(C)C)n1 [TAE-684]			reported to bind DLK	toxicity in RGC culture (primary RGCs): limited by toxicity at nanomolar doses
CNC(=O)c1ccccc1Sc1ccc2c(/C=C/c3ccccn3)n[nH]c2c1 [axitinib]	promoted the survival of primary RGCs in culture	neuroprotective activity	reported to bind DLK	
COc1cc(Nc2c(C#N)cnc3cc(OCCCN4CCN(C)CC4)c(OC)cc23)c(Cl)cc1Cl [bosutinib]	promoted the survival of primary RGCs in culture	neuroprotective activity	reported to bind DLK	
COc1cc2nccc(Oc3ccc(NC(=O)C4(C(=O)Nc5ccc(F)cc5)CC4)cc3)c2cc1OC [cabozantinib]		neuroprotective activity		
C[C@@H](Oc1cc(-c2cnn(C3CCNCC3)c2)cnc1N)c1c(Cl)ccc(F)c1Cl [crizotinib]	promoted the survival of primary RGCs in culture	neuroprotective activity	reported to bind DLK	
Cc1nc(Nc2ncc(C(=O)Nc3c(C)cccc3Cl)s2)cc(N2CCN(CCO)CC2)n1 [dasatinib]		neuroprotective activity		
COc1cc2c(Oc3ccc(NC(=O)C4(C(=O)Nc5ccc(F)cc5)CC4)cc3F)ccnc2cc1OCCCN1CCOCC1 [foretinib]	promoted the survival of primary RGCs in culture	neuroprotective activity	reported to bind DLK	
Cc1ccc(NC(=O)c2ccc(CN3CCN(C)CC3)cc2)cc1Nc1nccc(-c2cccnc2)n1 [imatinib]	lack neuroprotective activity			
C[C@]12O[C@H](C[C@]1(O)CO)n1c3ccccc3c3c4c(c5c6ccccc6n2c5c31)CNC4=O [lestautinib, lestaurtinib]	promoted the survival of primary RGCs in culture			
CCOc1cc2ncc(C#N)c(Nc3ccc(OCc4ccccn4)c(Cl)c3)c2cc1NC(=O)/C=C/CN(C)C [neratinib]			reported to bind DLK	toxicity in RGC culture (primary RGCs): limited by toxicity at nanomolar doses
CNC(=O)c1cc(Oc2ccc(NC(=O)Nc3ccc(Cl)c(C(F)(F)F)c3)cc2)ccn1 [sorafenib]	lack neuroprotective activity			
CCN(CC)CCNC(=O)c1c(C)[nH]c(/C=C2\C(=O)Nc3ccc(F)cc32)c1C [sunitinib]				reduction of optic nerve axon loss (optic nerve axons): 40%; increase in surviving RGCs compared to control animals (RGCs; intravitreal PLGA microspheres 7 days before transection, two weeks post-transection): 3-4 fold; toxicity in RGC culture (primary RGCs; primary RGCs in culture): cytotoxicity at high concentrations
Cc1cc(Nc2cc(N3CCN(C)CC3)nc(Sc3ccc(NC(=O)C4CC4)cc3)n2)[nH]n1 [tozasertib]	promoted the survival of primary RGCs in culture		reported to bind DLK	affinity for JNK (JNK1/2/3): does not have significant affinity; phosphorylation of targets downstream of DLK, including MKK7 and JNK [1]: decrease in the phosphorylation of targets downstream of DLK; effect on toxicity / survival with adenoviral-overexpressed DLK (RGCs overexpressing DLK): right-shift of the tozasertib-survival dose-response curve; neuroprotection in glaucoma model (optic nerve axons; intravitreal PLGA microspheres / slow release formulation): protected RGCs; reduction of optic nerve axon loss (optic nerve axons): 39%; effect on survival of DLK siRNA-transfected RGCs [2]: left-shift of the tozasertib-survival dose-response curve; surviving RGCs (RGCs; intravitreal PLGA microspheres 7 days before transection, two weeks after transection, vehicle 12.0%): 32.3%; protection of RGCs in optic nerve transection model (RGCs; intravitreal slow release formulation): protected RGCs; affinity for MKK4/7 (MKK4/7): does not have significant affinity; RGC survival / neuroprotective activity in culture (primary RGCs; listed as Tozasertib): significant neuroprotective activity
Clc1ccc(Nc2nnc(Cc3ccncc3)c3ccccc23)cc1 [vatalanib]	lack neuroprotective activity			
